Laboratory results from patent publication EP0224249A1, “Amorphous benzimidazole derivatives” (SYNTEX (U.S.A.) INC., priority 1985, dated 1987).

Key:
[1] = test system: Oesophagostomum spp.; assay: Anthelmintic efficacy in sheep carrying oxfendazole-resistant nematodes; assay type: in vivo
Method: (§1) Animals are then subjected to necropsy on day 6 post-treatment. Gastrointestinal tract, lungs, and liver are examined using standard parasitological techniques for nematode and trematode parasites.
(§2) (B) Sheep carrying nematodes with varying degrees of resistance to oxfendazole were treated with either levamisole, oxfendazole, or amorphous oxfendazole in accordance with the above procedure.
(§3) • Ost = Ostertagia spp. • Tri = Trichostrongylus spp. • Nem = Nematodirus spp. • Oes = Oesophagostomum spp. • Tr.o = Trichuris ovis

[2] = test system: Ostertagia spp.; assay: as above; assay type: in vivo
Method: as §1, §2, §3

[3] = test system: Nematodirus spp.; assay: as above; assay type: in vivo
Method: as §1, §2, §3

[4] = test system: Trichuris ovis; assay: as above; assay type: in vivo
Method: as §1, §2, §3

[5] = test system: Trichostrongylus spp.; assay: as above; assay type: in vivo
Method: as §1, §2, §3

[6] = Dissolution rate at pH 2; assay type: physicochemical
Excerpt: The dissolution rate of amorphous fenbendazole versus crystalline fenbendazole at pH 2 was studied as a model for showing the bioavailability of the amorphous compound.

[7] = test system: nematode parasites; assay: Overall comparison of the goat and sheep efficacy studies; assay type: in vivo; settings: goat and sheep studies together
Excerpt: (§4) (A) Fifteen (15) goats, preferably from a single source, known to be infected with nematode parasites as evidenced by positive fecal egg counts are used. The animals would be preferably of one sex. They will have been to be contaminated with goat parasite eggs and larvae, particularly Ostertagia spp. (hereinafter "Ost") and Trichostrongylus spp. (hereinafter "Tri")
as §1, §2

[8] = Blood plasma levels after oral administration to dogs; assay type: in vivo; settings: 10 mg/kg; for Area Under the Curve / Area Under the Curve, mean (n = 6): plasma concentration vs time, 18720 min
Method: Dogs were administered orally either amorphous or crystalline oxfendazole at a dose of 10 mg/kg.
Blood samples were drawn and analyzed before administration and on days 1, 2, 3, 7, 10, and 13 following administration. The area under the curve was calculated for plasma concentration vs time profile.

[9] = test system: Ostertagia spp.; assay: Anthelmintic efficacy in naturally infected goats, necropsy on day 6 post-treatment; assay type: in vivo; settings: necropsy day 6 post-treatment
Method: as §4, with “"Tri") • 1. - Control • 2. - 9 mg amorphous oxfendazole/kg • 3. - 15 mg oxfendazole/kg Animals are then subjected to necropsy on day 6 post-treatment. Gastrointestinal tract, lungs, and liver are examined using standard parasitological techniques for nematode and trematode parasites.” for “"Tri")”

[10] = test system: Trichostrongylus spp.; assay: as above; assay type: in vivo; settings: necropsy day 6 post-treatment
Method: as §4, with “"Tri") • 1. - Control • 2. - 9 mg amorphous oxfendazole/kg • 3. - 15 mg oxfendazole/kg Animals are then subjected to necropsy on day 6 post-treatment. Gastrointestinal tract, lungs, and liver are examined using standard parasitological techniques for nematode and trematode parasites.” for “"Tri")”

[11] = administered to humans; cited from earlier work

Structure (SMILES): c1ccc([C@H]2CN3CCSC3=N2)cc1 [Levamisole]
- Percent Efficacy Oes ([1]; 8 mg/kg): 100%
- Percent Efficacy Ost ([2]; 8 mg/kg): 98%
- Percent Efficacy Nem ([3]; 8 mg/kg): 100%
- Percent Efficacy Tr. o ([4]; 8 mg/kg): 37%
- Percent Efficacy Tri ([5]; 8 mg/kg): 49%

Structure (SMILES): COC(=O)Nc1nc2ccc(Sc3ccccc3)cc2[nH]1 [amorphous fenbendazole, methyl 5-(phenylthio)-lH-benzimidazol-2-yl carbamate]
- % Dissolved ([6]; pH 2, 5 min): 73%
- % Dissolved ([6]; pH 2, 15 min): 91%
- % Dissolved ([6]; pH 2, 30 min): 125%
- % Dissolved ([6]; pH 2, 60 min): 130%
- % Dissolved ([6]; pH 2, 90 min): 112%
- solubility compared with crystalline fenbendazole ([6]; pH 2, over time): more soluble than crystalline fenbendazole and remains more soluble over time

Structure (SMILES): COC(=O)Nc1nc2ccc([S+]([O-])c3ccccc3)cc2[nH]1 (stereo not drawn) [amorphous oxfendazole, methyl 5-(phenylsulfinyl)-lH-benzimidazol-2-yl carbamate]
- dose for approximately equivalent efficacy, relative to that required for oxfendazole [7]: about 60%
- Percent Efficacy Oes ([1]; 3 mg/kg): 100%
- Percent Efficacy Oes ([1]; 6 mg/kg): 100%
- Percent Efficacy Ost ([2]; 3 mg/kg): 55%
- Percent Efficacy Ost ([2]; 6 mg/kg): 22%
- Percent Efficacy Nem ([3]; 3 mg/kg): 57%
- Percent Efficacy Nem ([3]; 6 mg/kg): 82%
- Percent Efficacy Tr. o ([4]; 3 mg/kg): 9.5%
- Percent Efficacy Tr. o ([4]; 6 mg/kg): 69%
- Percent Efficacy Tri ([5]; 3 mg/kg): 100%
- Percent Efficacy Tri ([5]; 6 mg/kg): 100%
- Area Under the Curve ([8]; Dog No. A): 20465.0 ng/ml hr
- Area Under the Curve ([8]; Dog No. B): 9717.5 ng/ml hr
- Area Under the Curve ([8]; Dog No. C): 11592.5 ng/ml hr
- Area Under the Curve ([8]; Dog No. D): 24245.0 ng/ml hr
- Area Under the Curve ([8]; Dog No. E): 12653.8 ng/ml hr
- Area Under the Curve ([8]; Dog No. F): 25475.0 ng/ml hr
- plasma level of oxfendazole compared with oxfendazole in commercially available form ([8]; dogs): higher plasma level of oxfendazole
- Area Under the Curve, mean (n = 6) ([8]; dogs): 17358.1 ng/ml hr
- Percent Efficacy Ost ([9]; 9 mg/kg): 70%
- Percent Efficacy Tri ([10]; 9 mg/kg): 98%

Structure (SMILES): COC(=O)Nc1nc2cc(Sc3ccccc3)ccc2[nH]1 [crystalline fenbendazole, methyl 5-(phenylthio)-lH-benzimidazol-2-yl carbamate]
- % Dissolved ([6]; pH 2, 5 min): 21%
- % Dissolved ([6]; pH 2, 15 min): 22%
- % Dissolved ([6]; pH 2, 30 min): 46%
- % Dissolved ([6]; pH 2, 60 min): 41%
- % Dissolved ([6]; pH 2, 90 min): 25%

Structure (SMILES): COC(=O)Nc1nc2ccc(C(=O)c3ccccc3)cc2[nH]1 [crystalline mebendazole, methyl 5-benzoyl-lH-benzimidazol-2-yl carbamate]
- absorbed [11]: 3-4%

Structure (SMILES): COC(=O)Nc1nc2ccc([S+]([O-])c3ccccc3)cc2[nH]1 (stereo not drawn) [oxfendazole, methyl 5-(phenylsulfinyl)-lH-benzimidazol-2-yl carbamate]
- Percent Efficacy Oes ([1]; 5 mg/kg): 100%
- Percent Efficacy Oes ([1]; 10 mg/kg): 100%
- Percent Efficacy Ost ([2]; 5 mg/kg): 0%
- Percent Efficacy Ost ([2]; 10 mg/kg): 28%
- Percent Efficacy Nem ([3]; 5 mg/kg): 22%
- Percent Efficacy Nem ([3]; 10 mg/kg): 80%
- Percent Efficacy Tr. o ([4]; 5 mg/kg): 38%
- Percent Efficacy Tr. o ([4]; 10 mg/kg): 62%
- Percent Efficacy Tri ([5]; 5 mg/kg): 100%
- Percent Efficacy Tri ([5]; 10 mg/kg): 99.7%
- Area Under the Curve ([8]; Dog No. A, listed as Crystalline Ox.): 2700.0 ng/ml hr
- Area Under the Curve ([8]; Dog No. B, listed as Crystalline Ox.): 2622.0 ng/ml hr
- Area Under the Curve ([8]; Dog No. C, listed as Crystalline Ox.): 2130.0 ng/ml hr
- Area Under the Curve ([8]; Dog No. D, listed as Crystalline Ox.): 3341.0 ng/ml hr
- Area Under the Curve ([8]; Dog No. E, listed as Crystalline Ox.): 3107.5 ng/ml hr
- Area Under the Curve ([8]; Dog No. F, listed as Crystalline Ox.): 4149.5 ng/ml hr
- Area Under the Curve, mean (n = 6) ([8]; dogs, listed as Crystalline Ox.): 3008.4 ng/ml hr
- Percent Efficacy Ost ([9]; 15 mg/kg): 77%
- Percent Efficacy Tri ([10]; 15 mg/kg): 80%
